Assay results published in patent US12343319B2, “Compositions and methods for treatment of diseases and disorders” (Atai Therapeutics Inc., priority 2023, dated 2025).
“Also recorded” adds a separate entry of the source.

Experiments:
[1] = tested on: C57BL/6J male mice; test: Mouse forced swim test 24 hr after single administration; assay type: in vivo; conditions: 3, 10 & 30 mg/kg i.p., 24 hr post-administration
Experimental: Young adult C57BL/6J male mice (8-9 weeks old at arrival; n=113) were purchased from Charles River (DE). All C57BL/6J mice were housed in groups of 4 per cage. Mice were maintained under controlled conditions (21±2° C., 50±1% humidity, 12/12 h light/dark cycles, lights on at 7 a.m.) with food and water available ad libitum.
Experimental Design: The experimental procedures were in accordance with the European Communities Council Directive (Directive 2010/63 EU into the Polish Directives (Journal of Laws of 2021, item 1331, as amended)) and approved by the Local Ethic Committee in Olsztyn (Approval No. 27/203 from 22 Mar. 2023). […]
Forced Swim Test: After 17 days of acclimatization (11-12 weeks old), all mice were randomly assigned to experimental groups (n=14-15/group). Sample size (n=14 per group) was determined based on G-power calculations using alpha 0.05, t-test and effect size calculation based on mean and SD from vehicle and positive control groups. […] Because little immobility is observed during the first 2 minutes of the FST, only immobility occurring during the last 4 minutes was scored and analyzed. […] All test sessions were recorded using a video camera placed on the side of the cylinder for subsequent behavioral analysis by scorers blinded to the treatment conditions. […]
Data Analysis: Data for each compound have been analyzed separately using the GraphPad Prism 9 statistical software. […]

[2] = tested on: Male Sprague-Dawley rats; test: 5-HT2A/2C/1A-mediated behaviors, locomotor activity and body temperature in rats; assay type: in vivo, rat
Experimental: Forty (40) male Sprague-Dawley rats were used as test subjects in this study. Animals were dosed with vehicle (IP), one of 3 doses of compound 2-2 (3 mg/kg, 10 mg/kg, 30 mg/kg IP) or psilocybin (1 mg/kg SC) and, following the appropriate pre-treatment time, were placed in locomotor activity boxes and continuously monitored for a 1 hr period with data collected into 10-minute time bins. Animals were visually assed for overt behavioral signs, including biomarkers for 5-HT2A receptor target engagement (i.e. wet dog shakes, back muscle contractions and stereotypic behaviors), 5-HT2C receptor activation (yawning, penile grooming), and 5-HT1A behaviors (forepaw treading, hindlimb abduction). Additional behavioral and somatic signs characteristic of 5-HT syndrome (i.e. tremor, salivation, flat body posture) also were measured. Core body temperature change was determined at 0 hr (pre-dose), 1 hr, and 2 hr. Simultaneously, the spontaneous locomotor activity of the rats was measured using automated Med Associates activity test chambers. Activity data collected included total distance travelled, rearing counts, and ambulatory episodes. LMA was measured for a total of 2 hours (i.e. the first hour to include visual assessments of behavioral signs, and the second hour the animals will not be assessed for behavioral signs) with data collected into 10 minute time bins. The tracking arena measured 17″ W×17″ L×12″ H, sensor bars were secured 1″ above the floor to track distance travelled, and a second set of sensor bars were placed ˜5″ above the floor to measure vertical movement and rearing activity. The parameters set on the tracking software were as follows: resolution −50 ms, box size −4 beams, resting delay −500 ms, and ambulatory trigger −3.
Table 14 outlines receptor activity and related behavioral and/or physiological measures.

[3] = 5-HT1A agonism, 3, 10, 30 mg/kg IP
[4] = 5-HT2C agonism, 3, 10, 30 mg/kg IP
[5] = excess 5-HT agonism (5-HT syndrome), 3, 10, 30 mg/kg IP

COc1ccc(OC)c(CCNCc2cc(C)cc(Cl)c2)c1 [Compound 2-1, N-(3-chloro-5-methylbenzyl)-2-(2,5-dimethoxyphenyl)ethan-1-amine]
immobility time in mouse FST [1]: lack of robust differences; also recorded: Neither compound 2-1 (3, 10 & 30 mg/kg) nor compound 2-2 (3 & 30 mg/kg) showed significant reductions

COc1ccc(OC)c(CCNCc2cc(C)cc(F)c2)c1 [Compound 2-2, 2-(2,5-dimethoxyphenyl)-N-(3-fluoro-5-methylbenzyl)ethan-1-amine]
distance travelled during the first 20 minutes of the 2 hour test ([2]; 30 mg/kg IP): decreased | total ambulatory episodes ([2]; 30 mg/kg IP): decreased | total rearing counts ([2]; 30 mg/kg IP): decreased | total distance travelled ([2]; 3, 10, 30 mg/kg IP, 2 hour test): did not affect | Flat body posture ([2]; 5-HT1A agonism / excess 5-HT agonism, 30 mg/kg IP (highest dose tested), 30 mg/kg): induced flat body posture; also recorded: Significant Increase | Forepaw treading (FPT) [2, 3]: No effect | Hindlimb abduction (HLA) [2, 3]: No effect | Penile grooming (PG) [2, 4]: No effect | Yawning [2, 4]: No effect | Salivation [2, 5]: No effect | Tremor [2, 5]: No effect | Locomotor activity ([2]; mixed/non-selective, 30 mg/kg IP): Significant decrease
